Results from patent US5340823A, “Organosilane derivatives, pharmaceutical compositions containing them and process for preparing same” (Richter Gedeon Vegyeszeti Gyar RT., priority 1990, dated 1994).
Like-named read-outs stand apart in the source and are kept apart here.

Tests used:
[1] = system: GYKI-20039-induced tremor; assay: GYKI-20039-induced tremor test on mice; format: in vivo, mice (male CFLP); conditions: for ED50: Mus musculus
Experimental: After administration of the test substance the mice were suspended on an isometric dynamometer in a light plastic box and the strength of the tremor was measured and quantified by electronic integration. The tremor strength of mice was averaged in the 4th-5th minutes following the treatment with 10 the test substance.
The animals were pretreated with various doses of the muscle relaxants to be tested before administration of the test substance. The time of pretreatment was 0 in intravenous examinations, whereas a pretreatment time of 10 minutes was used in oral investigations.
(§1) For the verification of the oral activity the tremor test was used on mice whereas the flexor reflex was investigated by using intraduodenal (i.d.) administration.

Straub's tail = Straub's tail test (morphine hydrochloride) on mice; format: in vivo, mice (male OF-1); conditions: for ED50: Mus musculus, ip, read-out: Straub's tail ED50 i.p.
Experimental: Method 2: Straub's tail test
The method of Novack [Drug Development Res. 2, 383 (1982)] was used with some modification. Groups consisting of 10 male OF-1 mice each weighing 19 to 21 g were intraperitoneally treated with 60 mg/kg of morphine hydrochloride. The formation (development) of Straub's stail was judged by 15 minutes after the morphine treatment. It was considered to be positive when the animal permanently kept his tail upwards in an angle being steeper than 45°. A pretreatment was carried out with various doses of the compound to be tested by 20 minutes before the time of reading. The ED50 value, i.e. the dose inhibiting the positive response in 50% of the animals, was calculated by using the method of Litchfield and Wilcoxon.
(The above author found a good correlation between the effectivity shown in this test method and the clinical effect of central muscle relaxants.)

flexor reflex = assay: Flexor reflex on anaesthetized cats; format: in vivo
Experimental: Method 3: Flexor reflex on anaesthetized cats
Chloralose-anaesthetized cats of both sexes weighing 2.2 to 5.4 kg each were used in these experiments. The flexor reflex of the animals was assessed by using the quantitative electromyographic method of Farkas et al. [Pharmacol. Res. Comm. 20, Suppl. 1, 141 (1988)].
[…] For characterization of duration of the effect the time (T75%) is shown, which passed after administration of this dose up to the return to 75% of the control value.
as §1

[2] = Acute toxicity and therapeutic ratio on mice; format: in vivo; conditions: mouse, in vivo; for selectivity ratio: mice, LD50 to tremor ED50
Experimental: (§2) Method 4: Study on the acute toxicity
(§3) These experiments were carried out on groups consisting of 10 male and 10 female mice each weighing 19 to 21 g. For the determination of the intravenous toxicity the substances to be tested were dissolved in 10 ml/kg of body-weight of physiological saline and injected to the tail vein of CFLP mice during 1 minute. For evaluation of the oral toxicity the substances to be tested were dissolved in 10 ml/kg of body-weight of physiological saline and introduced to the stomach of OF-1 mice by using a rigid gastric tube. The perishing ratio of the animals was evaluated by 48 hours following the administration of the substance to be tested. The LD50 value, i.e. the dose causing the death of 50% of the animals was calculated by using the method of Litchfield and Wilcoxon. The therapeutic (safety) ratio was determined as the ratio of the LD50 value to ED50 value shown in the GYKI-20039-induced tremor test.

mice = assay: Acute toxicity and therapeutic ratio on mice; format: in vivo; conditions: mice, i.v. and oral
Experimental: as §2, §3

[3] = system: GYKI-20039-induced tremor; conditions: mice; literature (Coward et al.; Andrasi et al.); cited from earlier work
[4] = iv, Table 3, read-out: Muscle relaxant effect, Tremor ED50 i.v.
[5] = iv, pretreatment time 0, Table 1, read-out: GYKI-20039 (tremor) ED50 i.v.
[6] = po, Table 3, read-out: Muscle relaxant effect, Tremor ED50 p.o.
[7] = po, pretreatment 10 minutes, Table 2, read-out: Tremor test ED50 p.o.
[8] = mice, i.p., 60 mg/kg morphine hydrochloride, Table 1
[9] = 10 mg/kg i.v., time up to return to 75% of control
[10] = iv, CFLP mice, i.v., read-out: Acute toxicity LD50 i.v.
[11] = iv, i.v., read-out: Therapeutic ratio LD50/ED50 i.v.
[12] = po, OF-1 mice, p.o., read-out: Acute toxicity LD50 p.o.
[13] = po, p.o., read-out: Therapeutic ratio LD50/ED50 p.o.

CCc1ccc(C(=O)C(C)CN2CCCCC2)cc1 (centres unmarked) [Eperisone, eperisone, reference compound]
ED50 [1, 4]: 7.8 mg/kg | ED50 [1, 5]: 7.8 mg/kg | ED50 [1, 6]: 126 mg/kg | ED50 [1, 7]: 126 mg/kg | ED50 (Straub's tail; [8]): 63.6 mg/kg | Flexor reflex, duration of effect T75% (flexor reflex; [9]): 90 min | Flexor reflex, T75% (flexor reflex; 25 mg/kg i.d.): 60 min | Flexor reflex, maximum inhibition (flexor reflex; 25 mg/kg i.d.): 38.5% | Flexor reflex, T75% (flexor reflex; 50 mg/kg i.d.): 190 min | Flexor reflex, maximum inhibition (flexor reflex; 50 mg/kg i.d.): 74.8% | LD50 at 48 h [2, 10]: 53.4 mg/kg | selectivity ratio [2, 11]: 6.8 | LD50 at 48 h [2, 12]: 320 mg/kg | selectivity ratio [2, 13]: 2.5

C[Si](C)(Cc1ccc(F)cc1)CN1CCCCC1.Cl [Example 2, N-{[dimethyl-(4-fluorobenzyl)silyl]methyl}piperidine hydrochloride]
ED50 [1, 4]: 2.8 mg/kg | ED50 [1, 5]: 2.8 mg/kg | ED50 [1, 6]: 27.6 mg/kg | ED50 [1, 7]: 27.6 mg/kg | activity relative to eperisone ([1]; oral route): 5 times | activity relative to tolperisone ([1]; oral route): 10 times | ED50 (Straub's tail): 21.8 mg/kg | Flexor reflex, duration of effect T75% (flexor reflex; [9]): > 180 min | Flexor reflex, T75% (flexor reflex; 12.5 mg/kg i.d.): 230 min | Flexor reflex, maximum inhibition (flexor reflex; 12.5 mg/kg i.d.): 44.8% | Flexor reflex, T75% (flexor reflex; 25 mg/kg i.d.): > 300 min | Flexor reflex, maximum inhibition (flexor reflex; 25 mg/kg i.d.): 82.1% | duration of effect compared with 4-fold doses of the reference drugs (flexor reflex; i.d.): exceeded even the duration of effect of 4-fold doses of the reference drugs | dose needed to achieve a given effect relative to the dose of the reference drugs (flexor reflex; i.d., vs tolperisone and eperisone): half of the dose | LD50 at 48 h [2, 10]: 25.5 mg/kg | selectivity ratio [2, 11]: 9.1 | LD50 at 48 h [2, 12]: 228 mg/kg | selectivity ratio [2, 13]: 8.3 | therapeutic ratio in comparison to the reference drugs (mice): significantly more advantageous

C[Si](C)(Cc1ccc(F)cc1)CN1CCCC1.Cl [Example 10, N-{[dimethyl-(4-fluorobenzyl)silyl]methyl}-pyrrolidine hydrochloride]
ED50 [1, 5]: 2.8 mg/kg | ED50 (Straub's tail): 22 mg/kg | Flexor reflex, duration of effect T75% (flexor reflex; [9]): > 180 min

C[Si](C)(CCCN1CCCC1)Cc1ccc(F)cc1.Cl [Example 11, N-{[dimethyl-(4-fluorobenzyl)silyl]propyl}pyrrolidine hydrochloride]
ED50 [1, 5]: 3.8 mg/kg | ED50 (Straub's tail): 27.5 mg/kg | Flexor reflex, duration of effect T75% (flexor reflex; [9]): > 180 min

C[Si](C)(CCCn1ccnc1)Cc1ccc(F)cc1.Cl [Example 12, N-{[dimethyl-(4-fluorobenzyl)silyl]propyl}imidazole hydrochloride]
ED50 [1, 5]: 5.4 mg/kg | ED50 (Straub's tail): 26.9 mg/kg | inhibition of flexor reflex (flexor reflex; 10 mg/kg i.v.): 40% | Flexor reflex, duration of effect T75% (flexor reflex; [9]): > 180 min

C[Si](C)(CCCN1CCCCC1)Cc1ccccc1.Cl [Example 19, N -[(benzyldimethylsilyl)propyl]piperidine hydrochloride]
ED50 [1, 5]: 3.6 mg/kg | ED50 (Straub's tail): 22.3 mg/kg | Flexor reflex, duration of effect T75% (flexor reflex; [9]): > 180 min

Cc1ccc(C[Si](C)(C)N2CCCCC2)c(C)c1.Cl [Example 34]
GYKI-20039 (tremor) ED50 i.v. ([1]; i.v., pretreatment time 0, Table 1): 8.7 mg/kg | Straub's tail ED50 i.p. (Straub's tail; [8]): 30.7 mg/kg | Flexor reflex, duration of effect T75% (flexor reflex; i.v., 5 mg/kg (footnote *)): 120 min | inhibition of flexor reflex (flexor reflex; i.v., 5 mg/kg (footnote *)): 53%

Cc1ccc(Cl)c(C[Si](C)(C)CN2CCCCC2)c1.Cl [Example 35, N-{[(2-chloro-5-methylbenzyl)-dimethylsilyl]methyl}piperidine hydrochlorid]
ED50 [1, 5]: 3.7 mg/kg | ED50 (Straub's tail): 25.9 mg/kg | Flexor reflex, duration of effect T75% (flexor reflex; [9]): > 180 min

N=C1SCCN1c1c(Cl)cccc1Cl [GYKI-20039, reference compound]
induction of tremor [1]: induces a tremor on mice

Cl.N=C(Cc1c(Cl)cccc1Cl)NC(N)=O [LON-954]
induction of tremor [3]: induces a tremor on mice

Cc1ccc(C(=O)C(C)CN2CCCCC2)cc1 (centres unmarked) [Tolperisone, tolperisone, reference compound]
ED50 [1, 4]: 10.1 mg/kg | ED50 [1, 6]: 338 mg/kg | ED50 [1, 7]: 338 mg/kg | ED50 (Straub's tail; [8]): 63 mg/kg | Flexor reflex, duration of effect T75% (flexor reflex; [9]): 50 min | Flexor reflex, T75% (flexor reflex; 25 mg/kg i.d.): 60 min | Flexor reflex, maximum inhibition (flexor reflex; 25 mg/kg i.d.): 33.1% | Flexor reflex, T75% (flexor reflex; 50 mg/kg i.d.): 140 min | Flexor reflex, maximum inhibition (flexor reflex; 50 mg/kg i.d.): 76.6% | LD50 at 48 h [2, 10]: 39.8 mg/kg | selectivity ratio [2, 11]: 3.9 | LD50 at 48 h [2, 12]: 612 mg/kg | selectivity ratio [2, 13]: 1.8
